From ChEMBL document CHEMBL1145498, “A systematic interaction map of validated kinase inhibitors with Ser/Thr kinases” (Proc Natl Acad Sci U S A, 2007)

Experiments:
[1] = biological target: T1, Serine/threonine-protein kinase PLK4 (Homo sapiens) (UniProt O00444)
T1 sequence (whole entry): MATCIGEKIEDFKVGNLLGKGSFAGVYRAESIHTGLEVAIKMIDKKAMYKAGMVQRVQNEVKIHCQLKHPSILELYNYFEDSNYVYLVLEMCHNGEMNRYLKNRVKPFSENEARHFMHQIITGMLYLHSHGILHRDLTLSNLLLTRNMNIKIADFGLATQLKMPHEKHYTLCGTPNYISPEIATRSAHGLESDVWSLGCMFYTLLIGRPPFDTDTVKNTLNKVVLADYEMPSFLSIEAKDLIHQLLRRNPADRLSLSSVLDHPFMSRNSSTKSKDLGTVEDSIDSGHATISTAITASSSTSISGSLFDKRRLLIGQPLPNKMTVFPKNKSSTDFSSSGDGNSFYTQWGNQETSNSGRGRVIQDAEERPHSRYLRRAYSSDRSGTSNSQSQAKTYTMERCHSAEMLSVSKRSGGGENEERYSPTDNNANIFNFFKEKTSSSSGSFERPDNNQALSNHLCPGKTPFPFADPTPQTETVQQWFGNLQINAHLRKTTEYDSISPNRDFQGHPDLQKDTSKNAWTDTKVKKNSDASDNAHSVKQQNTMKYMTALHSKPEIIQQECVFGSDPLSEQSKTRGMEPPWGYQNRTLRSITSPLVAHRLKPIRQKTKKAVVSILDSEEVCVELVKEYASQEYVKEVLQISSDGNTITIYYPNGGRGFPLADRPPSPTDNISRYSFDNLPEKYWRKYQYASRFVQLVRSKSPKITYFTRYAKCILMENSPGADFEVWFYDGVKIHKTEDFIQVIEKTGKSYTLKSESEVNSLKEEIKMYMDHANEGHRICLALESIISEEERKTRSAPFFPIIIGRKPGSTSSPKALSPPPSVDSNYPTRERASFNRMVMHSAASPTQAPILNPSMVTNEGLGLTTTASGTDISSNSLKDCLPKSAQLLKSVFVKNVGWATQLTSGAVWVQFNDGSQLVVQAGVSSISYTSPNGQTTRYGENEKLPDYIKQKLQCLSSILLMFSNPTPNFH

[2] = biological target: Dual specificity protein kinase CLK3 (Homo sapiens) (UniProt P49761)
[3] = biological target: Serine/threonine-protein kinase 16 (Homo sapiens) (UniProt O75716)
[4] = biological target: Serine/threonine-protein kinase VRK2 (Homo sapiens) (UniProt Q86Y07)
[5] = biological target: Calcium/calmodulin-dependent protein kinase type II subunit beta (Homo sapiens) (UniProt Q13554)
[6] = biological target: T2, Calcium/calmodulin-dependent protein kinase type IV (Homo sapiens) (UniProt Q16566)
T2 sequence (whole entry): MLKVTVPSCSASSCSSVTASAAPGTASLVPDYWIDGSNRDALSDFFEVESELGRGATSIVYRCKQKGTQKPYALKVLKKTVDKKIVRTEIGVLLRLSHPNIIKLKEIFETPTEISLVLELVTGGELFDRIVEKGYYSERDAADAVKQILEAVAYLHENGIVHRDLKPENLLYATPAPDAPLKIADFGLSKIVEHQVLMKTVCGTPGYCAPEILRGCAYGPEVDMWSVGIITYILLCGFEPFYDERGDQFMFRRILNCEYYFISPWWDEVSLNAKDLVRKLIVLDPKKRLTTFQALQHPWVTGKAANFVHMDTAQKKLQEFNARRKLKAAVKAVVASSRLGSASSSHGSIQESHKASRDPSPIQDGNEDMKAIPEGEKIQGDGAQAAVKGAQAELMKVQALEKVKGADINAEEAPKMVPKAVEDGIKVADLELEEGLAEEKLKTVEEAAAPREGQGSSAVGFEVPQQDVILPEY

[7] = biological target: Ribosomal protein S6 kinase alpha-3 (Homo sapiens) (UniProt P51812)
[8] = biological target: Dual specificity protein kinase CLK1 (Homo sapiens) (UniProt P49759)
[9] = biological target: Serine/threonine-protein kinase 26 (Homo sapiens) (UniProt Q9P289)
[10] = biological target: Mitogen-activated protein kinase 11 (Homo sapiens, UniProt Q15759)
[11] = biological target: Serine/threonine-protein kinase 38 (Homo sapiens) (UniProt Q15208)
[12] = biological target: Cyclin-dependent kinase-like 1 (Homo sapiens) (UniProt Q00532)
[13] = biological target: Cyclin-dependent kinase 6 (Homo sapiens) (UniProt Q00534)
[14] = biological target: T3, Serine/threonine-protein kinase VRK3 (Homo sapiens) (UniProt Q8IV63)
T3 sequence (whole entry): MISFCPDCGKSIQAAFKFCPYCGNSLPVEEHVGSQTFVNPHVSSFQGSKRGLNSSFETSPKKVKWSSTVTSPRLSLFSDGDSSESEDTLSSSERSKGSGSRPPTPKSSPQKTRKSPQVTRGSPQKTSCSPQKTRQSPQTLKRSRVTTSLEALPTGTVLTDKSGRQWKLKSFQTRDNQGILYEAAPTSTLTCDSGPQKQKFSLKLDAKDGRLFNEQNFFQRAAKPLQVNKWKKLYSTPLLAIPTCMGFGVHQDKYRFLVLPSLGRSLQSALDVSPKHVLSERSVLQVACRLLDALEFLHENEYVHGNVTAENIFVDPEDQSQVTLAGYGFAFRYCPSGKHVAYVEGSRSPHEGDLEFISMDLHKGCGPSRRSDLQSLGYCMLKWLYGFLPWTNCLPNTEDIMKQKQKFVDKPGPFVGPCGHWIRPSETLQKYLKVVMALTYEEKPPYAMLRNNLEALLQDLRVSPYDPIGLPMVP

[15] = biological target: Casein kinase I isoform gamma-3 (Homo sapiens) (UniProt Q9Y6M4)
[16] = biological target: Mitogen-activated protein kinase 6 (Homo sapiens) (UniProt Q16659)
[17] = biological target: Serine/threonine-protein kinase PAK 4 (Homo sapiens) (UniProt O96013)
[18] = biological target: Serine/threonine-protein kinase pim-2 (Homo sapiens, UniProt Q9P1W9)

Sequence of Dual specificity protein kinase CLK1 (Homo sapiens) (P49759 whole entry, looked up): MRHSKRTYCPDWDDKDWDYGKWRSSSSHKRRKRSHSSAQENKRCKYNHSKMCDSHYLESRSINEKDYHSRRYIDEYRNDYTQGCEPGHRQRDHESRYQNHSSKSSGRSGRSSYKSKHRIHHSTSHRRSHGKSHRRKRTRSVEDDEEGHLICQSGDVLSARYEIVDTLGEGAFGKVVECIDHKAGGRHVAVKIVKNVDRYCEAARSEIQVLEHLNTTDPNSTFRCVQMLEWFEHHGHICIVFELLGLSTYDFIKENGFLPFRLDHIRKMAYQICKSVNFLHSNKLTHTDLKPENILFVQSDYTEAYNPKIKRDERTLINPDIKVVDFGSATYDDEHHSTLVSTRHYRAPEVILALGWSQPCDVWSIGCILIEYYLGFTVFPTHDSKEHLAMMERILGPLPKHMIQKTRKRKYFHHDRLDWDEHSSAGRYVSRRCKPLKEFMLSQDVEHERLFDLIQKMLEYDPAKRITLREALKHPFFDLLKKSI
Sequence of Ribosomal protein S6 kinase alpha-3 (Homo sapiens) (P51812 whole entry): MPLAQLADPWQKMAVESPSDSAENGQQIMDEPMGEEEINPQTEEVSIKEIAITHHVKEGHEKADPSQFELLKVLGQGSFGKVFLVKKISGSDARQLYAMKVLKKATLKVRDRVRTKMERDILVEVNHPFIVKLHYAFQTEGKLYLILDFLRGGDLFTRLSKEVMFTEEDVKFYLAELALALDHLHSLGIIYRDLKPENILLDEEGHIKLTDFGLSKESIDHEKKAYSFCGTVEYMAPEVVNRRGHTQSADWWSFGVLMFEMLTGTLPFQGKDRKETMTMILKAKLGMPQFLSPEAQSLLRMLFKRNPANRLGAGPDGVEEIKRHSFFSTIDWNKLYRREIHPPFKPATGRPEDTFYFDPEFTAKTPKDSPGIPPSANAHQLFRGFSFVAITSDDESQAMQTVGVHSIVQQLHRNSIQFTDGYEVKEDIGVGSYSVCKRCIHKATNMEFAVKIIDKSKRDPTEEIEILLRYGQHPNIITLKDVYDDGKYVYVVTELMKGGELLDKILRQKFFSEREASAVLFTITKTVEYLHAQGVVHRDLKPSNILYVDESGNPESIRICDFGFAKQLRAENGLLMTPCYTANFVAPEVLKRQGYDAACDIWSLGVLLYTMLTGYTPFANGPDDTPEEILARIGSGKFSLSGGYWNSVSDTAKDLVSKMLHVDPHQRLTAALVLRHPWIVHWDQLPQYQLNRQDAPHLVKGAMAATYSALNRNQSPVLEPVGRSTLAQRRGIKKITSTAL
Sequence of Casein kinase I isoform gamma-3 (Homo sapiens) (Q9Y6M4 whole entry, looked up, canonical isoform): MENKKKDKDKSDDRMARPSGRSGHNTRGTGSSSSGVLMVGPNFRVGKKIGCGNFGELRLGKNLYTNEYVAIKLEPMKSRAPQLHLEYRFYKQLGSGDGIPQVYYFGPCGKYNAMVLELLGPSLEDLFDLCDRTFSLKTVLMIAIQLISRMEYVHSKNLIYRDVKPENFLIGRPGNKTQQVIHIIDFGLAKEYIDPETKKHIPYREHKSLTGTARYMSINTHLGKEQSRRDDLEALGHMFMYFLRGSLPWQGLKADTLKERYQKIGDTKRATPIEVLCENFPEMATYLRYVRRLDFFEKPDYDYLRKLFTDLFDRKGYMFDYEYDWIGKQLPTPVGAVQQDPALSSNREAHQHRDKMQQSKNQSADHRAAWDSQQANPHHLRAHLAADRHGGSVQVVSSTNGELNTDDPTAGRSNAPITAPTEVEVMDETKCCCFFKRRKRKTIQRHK
Sequence of Serine/threonine-protein kinase 38 (Homo sapiens) (Q15208 2-465 limits assumed): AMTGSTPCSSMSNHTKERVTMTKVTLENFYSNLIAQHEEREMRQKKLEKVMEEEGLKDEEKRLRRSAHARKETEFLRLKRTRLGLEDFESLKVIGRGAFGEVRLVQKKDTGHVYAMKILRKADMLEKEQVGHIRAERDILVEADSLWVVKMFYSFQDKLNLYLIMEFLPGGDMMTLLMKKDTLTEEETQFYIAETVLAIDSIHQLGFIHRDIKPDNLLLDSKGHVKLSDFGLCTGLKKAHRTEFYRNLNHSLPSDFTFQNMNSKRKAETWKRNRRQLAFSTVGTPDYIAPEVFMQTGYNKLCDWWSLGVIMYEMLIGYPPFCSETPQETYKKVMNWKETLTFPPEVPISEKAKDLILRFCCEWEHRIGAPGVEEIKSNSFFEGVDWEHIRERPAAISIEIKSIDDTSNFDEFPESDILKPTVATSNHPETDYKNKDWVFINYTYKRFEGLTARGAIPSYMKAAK
Sequence of Serine/threonine-protein kinase VRK2 (Homo sapiens) (Q86Y07 whole entry): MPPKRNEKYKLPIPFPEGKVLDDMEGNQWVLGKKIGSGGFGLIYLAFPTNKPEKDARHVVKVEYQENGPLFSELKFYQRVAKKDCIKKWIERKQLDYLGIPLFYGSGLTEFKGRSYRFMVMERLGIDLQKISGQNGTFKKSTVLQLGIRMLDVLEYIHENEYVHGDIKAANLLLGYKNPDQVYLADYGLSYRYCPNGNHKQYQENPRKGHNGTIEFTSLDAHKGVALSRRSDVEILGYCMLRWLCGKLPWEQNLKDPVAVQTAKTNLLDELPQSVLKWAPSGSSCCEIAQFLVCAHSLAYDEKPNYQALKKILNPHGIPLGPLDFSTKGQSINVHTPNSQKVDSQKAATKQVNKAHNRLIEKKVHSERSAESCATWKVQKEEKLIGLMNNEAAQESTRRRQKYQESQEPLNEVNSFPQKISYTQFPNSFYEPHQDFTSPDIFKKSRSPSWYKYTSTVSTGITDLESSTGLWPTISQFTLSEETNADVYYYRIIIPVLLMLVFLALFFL
Sequence of Dual specificity protein kinase CLK3 (Homo sapiens) (P49761 whole entry, looked up): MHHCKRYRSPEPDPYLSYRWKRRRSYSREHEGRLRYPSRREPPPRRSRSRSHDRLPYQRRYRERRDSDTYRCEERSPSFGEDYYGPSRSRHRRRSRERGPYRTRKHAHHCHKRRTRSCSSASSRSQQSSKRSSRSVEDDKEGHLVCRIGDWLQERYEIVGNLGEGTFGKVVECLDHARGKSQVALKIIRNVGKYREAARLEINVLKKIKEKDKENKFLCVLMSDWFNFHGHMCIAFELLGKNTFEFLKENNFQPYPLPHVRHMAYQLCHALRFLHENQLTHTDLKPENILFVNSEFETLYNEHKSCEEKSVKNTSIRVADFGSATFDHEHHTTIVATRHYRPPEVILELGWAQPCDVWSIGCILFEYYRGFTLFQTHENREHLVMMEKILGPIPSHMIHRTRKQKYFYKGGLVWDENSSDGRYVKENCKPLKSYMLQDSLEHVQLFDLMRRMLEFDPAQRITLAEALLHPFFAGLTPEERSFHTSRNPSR
Sequence of Calcium/calmodulin-dependent protein kinase type II subunit beta (Homo sapiens) (Q13554 whole entry): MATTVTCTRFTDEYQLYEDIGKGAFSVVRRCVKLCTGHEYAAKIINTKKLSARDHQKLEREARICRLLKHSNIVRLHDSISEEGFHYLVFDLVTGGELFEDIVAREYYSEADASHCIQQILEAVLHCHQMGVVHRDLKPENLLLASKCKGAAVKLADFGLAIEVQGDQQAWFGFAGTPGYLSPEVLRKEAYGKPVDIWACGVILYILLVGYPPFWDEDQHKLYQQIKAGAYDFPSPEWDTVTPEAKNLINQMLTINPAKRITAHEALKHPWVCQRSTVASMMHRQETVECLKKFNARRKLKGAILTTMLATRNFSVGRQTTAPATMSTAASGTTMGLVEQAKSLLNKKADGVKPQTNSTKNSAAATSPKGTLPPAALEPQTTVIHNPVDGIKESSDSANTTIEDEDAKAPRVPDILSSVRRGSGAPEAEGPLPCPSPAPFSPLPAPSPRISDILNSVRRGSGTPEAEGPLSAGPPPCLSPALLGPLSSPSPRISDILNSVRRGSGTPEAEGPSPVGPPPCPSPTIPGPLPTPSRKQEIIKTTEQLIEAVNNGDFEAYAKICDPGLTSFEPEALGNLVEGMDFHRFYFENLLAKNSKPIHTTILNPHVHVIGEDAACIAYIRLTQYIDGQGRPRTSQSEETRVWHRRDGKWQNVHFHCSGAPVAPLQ
Sequence of Serine/threonine-protein kinase PAK 4 (Homo sapiens) (O96013 whole entry, looked up): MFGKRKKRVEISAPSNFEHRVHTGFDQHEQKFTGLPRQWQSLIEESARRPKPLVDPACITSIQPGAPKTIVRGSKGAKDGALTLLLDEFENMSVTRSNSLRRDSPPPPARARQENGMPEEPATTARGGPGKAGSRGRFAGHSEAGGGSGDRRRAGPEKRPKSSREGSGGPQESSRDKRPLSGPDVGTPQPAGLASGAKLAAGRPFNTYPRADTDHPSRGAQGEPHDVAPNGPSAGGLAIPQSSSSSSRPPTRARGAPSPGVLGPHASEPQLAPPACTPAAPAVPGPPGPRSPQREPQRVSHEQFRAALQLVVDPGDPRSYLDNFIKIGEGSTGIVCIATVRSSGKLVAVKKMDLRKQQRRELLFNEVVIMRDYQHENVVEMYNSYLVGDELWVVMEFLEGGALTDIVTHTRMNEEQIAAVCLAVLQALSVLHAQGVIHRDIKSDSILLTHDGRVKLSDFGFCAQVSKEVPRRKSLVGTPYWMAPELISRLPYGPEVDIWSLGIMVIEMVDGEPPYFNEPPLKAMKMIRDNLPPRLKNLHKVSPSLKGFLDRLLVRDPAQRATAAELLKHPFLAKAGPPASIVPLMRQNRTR
Sequence of Cyclin-dependent kinase 6 (Homo sapiens) (Q00534 whole entry): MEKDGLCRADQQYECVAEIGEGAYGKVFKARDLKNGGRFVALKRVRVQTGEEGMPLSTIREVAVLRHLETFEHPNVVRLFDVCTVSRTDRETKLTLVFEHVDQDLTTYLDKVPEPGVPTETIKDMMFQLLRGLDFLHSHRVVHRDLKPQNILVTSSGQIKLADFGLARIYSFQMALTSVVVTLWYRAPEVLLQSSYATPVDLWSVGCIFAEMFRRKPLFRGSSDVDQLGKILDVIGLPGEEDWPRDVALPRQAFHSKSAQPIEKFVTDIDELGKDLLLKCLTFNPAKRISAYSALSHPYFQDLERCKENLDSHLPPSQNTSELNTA

Row | SMILES | ΔTm [1] [°C] | ΔTm [2] [°C] | ΔTm [3] [°C] | ΔTm [4] [°C] | ΔTm [5] [°C] | ΔTm [6] [°C] | ΔTm [7] [°C] | ΔTm [8] [°C] | ΔTm [9] [°C] | ΔTm [10] [°C] | ΔTm [11] [°C] | ΔTm [12] [°C] | ΔTm [13] [°C] | ΔTm [14] [°C] | ΔTm [15] [°C] | ΔTm [16] [°C] | ΔTm [17] [°C] | ΔTm [18] [°C]
1 | Cn1cc(C2=C(c3cn(CCCSC(=N)N)c4ccccc34)C(=O)NC2=O)c2ccccc21 | 2.6 | 4.1 | 3.9 | 0.9 | 2 | 3.2 | 10 | 9.6 | 2.3 | 2 | 0.8 | 2.2 | 3.2 | 0.8 | 1 | 0 | 3.4 | 5.6
2 | O=c1ccc2ccc(O)c(O)c2o1 [DAPHNETIN] | 0.3 | 0.1 | 0.1 | -0.1 | 0.1 | -0.1 | 0 | 0 | -0.4 | -0.7 | 0.3 | 0.3 | -0.3 | -0.1 | 0.4 | 0.2 | 0 | 0.7
3 | O=S(=O)(NCCNC/C=C/c1ccc(Br)cc1)c1cccc2cnccc12 | 1.1 | 1 | 0.5 | 0.1 | -0.2 | 0.4 | 2.2 | 1.1 | 1.2 | 0.4 | 1.7 | -0.1 | -0.4 | 0.2 | 0.1 | 0.4 | 1 | -0.3
4 | O=[N+]([O-])c1ccc(-c2nc(-c3ccc(F)cc3)c(-c3ccncc3)[nH]2)cc1 | 1.8 | 0.1 | 0.5 | 1.5 | -0.5 | -0.2 | 1.8 | -1.2 | 0.7 | 14.8 | 0.9 | 0 | 0.9 | 0.4 | 2.6 | 0.4 | 0.1 | 0.5
